Source: the NIST ThermoML archive (doi:10.1021/je800150h)

Details: 101 kPa, Liquid

O [water]
Details	mass density [kg/m3]	viscosity [mPa·s]
278.1 K	999.9	1.519
283.1 K	999.7	1.308
288.15 K	–	1.14
293.15 K	–	1.005
298.15 K	–	0.894
303.15 K	–	0.799
308.15 K	994.1	0.723
313.15 K	–	0.655
318.15 K	–	0.599
323.15 K	–	0.548

CCO [ethanol]
Details	mass density [kg/m3]	viscosity [mPa·s]
268.1 K	811.1	1.975
273.1 K	806.8	1.775
278.1 K	802.6	1.629
283.1 K	798.4	1.468
288.15 K	794.2	1.341
293.15 K	789.9	1.207
298.15 K	785.7	1.105
303.15 K	781.4	1.01
308.15 K	777.1	0.92
313.15 K	772.8	0.84
318.15 K	767.9	0.772
323.15 K	763.4	0.713
